Test results taken from patent US20210261512A1, “NOVEL COMPOUNDS” (INFLAZOME LIMITED, priority 2018, published 2021).

What follows are compounds tested against NLRP3 (Homo sapiens, UniProt Q96P20) (assay: THP-1 cells pyroptosis assay). Settings: LPS 1.0 μg/ml, nigericin 5 μM, resazurin readout, 10 μM top dose (Example 2: top dose of 30 μM).
Type: cell-based
Design: Seed THP-1 cells (25,000 cells/well) containing 1.0 μg/ml LPS; host or cells: THP-1
Summary of the method: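 THP-1 cells (25,000/well) primed with 1 μg/ml LPS in serum-free RPMI, treated with compound (8-point dilution, 10 μM top unless stated; 0.1% DMSO) 3 h at 37°C, then nigericin 5 μM 1 h. Viability read by resazurin (100 μM, 1-2 h) fluorescence; IC50 from 4-parameter fit.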

NLRP3, sequence (Q96P20 whole entry): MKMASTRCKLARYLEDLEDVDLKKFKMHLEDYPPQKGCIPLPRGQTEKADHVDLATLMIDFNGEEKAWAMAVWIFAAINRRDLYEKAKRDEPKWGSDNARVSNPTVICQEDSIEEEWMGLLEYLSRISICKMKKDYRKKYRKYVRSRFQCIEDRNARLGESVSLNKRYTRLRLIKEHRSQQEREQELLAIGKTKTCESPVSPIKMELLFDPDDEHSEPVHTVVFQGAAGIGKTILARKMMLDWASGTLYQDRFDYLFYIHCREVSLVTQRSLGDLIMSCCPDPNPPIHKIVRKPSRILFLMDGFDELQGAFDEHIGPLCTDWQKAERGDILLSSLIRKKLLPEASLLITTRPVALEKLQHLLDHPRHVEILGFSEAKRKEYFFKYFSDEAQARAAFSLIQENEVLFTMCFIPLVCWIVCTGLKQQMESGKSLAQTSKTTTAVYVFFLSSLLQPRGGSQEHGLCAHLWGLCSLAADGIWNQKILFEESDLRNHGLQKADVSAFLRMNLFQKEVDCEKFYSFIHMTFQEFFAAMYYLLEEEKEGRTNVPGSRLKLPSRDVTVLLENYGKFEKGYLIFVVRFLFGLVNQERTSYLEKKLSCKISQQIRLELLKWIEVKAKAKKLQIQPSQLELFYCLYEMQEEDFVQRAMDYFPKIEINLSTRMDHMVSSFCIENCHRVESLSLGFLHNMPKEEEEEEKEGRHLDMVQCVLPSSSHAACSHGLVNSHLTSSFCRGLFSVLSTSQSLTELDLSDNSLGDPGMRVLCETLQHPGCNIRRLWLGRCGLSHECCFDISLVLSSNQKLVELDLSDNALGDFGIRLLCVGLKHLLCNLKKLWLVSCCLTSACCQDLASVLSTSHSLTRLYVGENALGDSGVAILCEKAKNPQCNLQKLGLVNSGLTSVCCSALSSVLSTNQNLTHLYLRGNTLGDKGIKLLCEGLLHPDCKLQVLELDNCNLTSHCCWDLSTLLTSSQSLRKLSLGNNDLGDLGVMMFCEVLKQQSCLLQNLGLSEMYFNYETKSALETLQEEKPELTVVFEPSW

IC50	Structure (SMILES)
≤ 5 µM	O=C1CCCN1CCNS(=O)(=O)c1nnc(Nc2c3c(cc4c2CCC4)CCC3)[nH]1 [Example 114, 5-((1,2,3,5,6,7-hexahydro-s-indacen-4-yl)amino)-N-(2-(2-oxopyrrolidin-1-yl)ethyl)-4H-1,2,4-triazole-3-sulfonamide]
≤ 5 µM	O=S(=O)(c1ccnnc1)c1n[nH]c(Nc2c3c(cc4c2CCC4)CCC3)n1 [Example 168, N-(1,2,3,5,6,7-hexahydro-s-indacen-4-yl)-3-(pyridazin-4-ylsulfonyl)-1H-1,2,4-triazol-5-amine]
≤ 5 µM	COc1ccc(S(=O)(=O)c2nnc(Nc3c4c(cc5c3CCC5)CCC4)[nH]2)cc1 [Example 183, N-(1,2,3,5,6,7-hexahydro-s-indacen-4-yl)-5-((4-methoxyphenyl)sulfonyl)-4H-1,2,4-triazol-3-amine]
≤ 0.5 µM	CC(C)(O)c1ccc(S(=O)(=O)c2nnc(Nc3c4c(cc5c3CCC5)CCC4)[nH]2)cc1 [Example 186, 2-(4-((5-((1,2,3,5,6,7-hexahydro-s-indacen-4-yl)amino)-4H-1,2,4-triazol-3-yl)sulfonyl)phenyl) propan-2-01]
≤ 5 µM	CN1CCCC(COc2cc(-c3ccc4c(c3Nc3nnc(S(C)(=O)=O)[nH]3)CCC4)ccn2)C1 (centres unmarked) [Example 359, N-(5-(2-((1-methylpiperidin-3-yl)methoxy)pyridin-4-yl)-2,3-dihydro-1H-inden-4-yl)-5-(methylsulfonyl)-4H-1,2,4-triazol-3-amine]
≤ 5 µM	CC(=O)NCCNS(=O)(=O)c1nnc(Nc2c3c(cc4c2CCC4)CCC3)[nH]1 [Example 115, N-(2-(5-((1,2,3,5,6,7-hexahydro-s-indacen-4-yl)amino)-4H-1,2,4-triazole-3-sulfonamido)ethyl)acetamide]
≤ 10 µM	O=S(=O)(c1ccccc1)c1nc(Nc2c(-c3cccnc3)cc(F)c3c2CCC3)n[nH]1 [Example 41, N-(7-fluoro-5-(pyridin-3-yl)-2,3-dihydro-1H-inden-4-yl)-5-(phenylsulfonyl)-1H-1,2,4-triazol-3-amine]
≤ 5 µM	CN(C)CC1CCN(S(=O)(=O)c2nnc(Cc3c4c(cc5c3CCC5)CCC4)[nH]2)C1 (centres unmarked) [Example 158, 1-(1-((5-((1,2,3,5,6,7-hexahydro-s-indacen-4-yl)methyl)-4H-1,2,4-triazol-3-yl)sulfonyl)pyrrolidin-3-yl)-N,N-dimethylmethanamine]
≤ 1 µM	Cc1ccccc1S(=O)(=O)c1nnc(Nc2c3c(cc4c2CCC4)CCC3)[nH]1 [Example 187, N-(1,2,3,5,6,7-hexahydro-s-indacen-4-yl)-5-(o-tolylsulfonyl)-4H-1,2,4-triazol-3-amine]
≤ 5 µM	COC1(c2cc(S(=O)(=O)c3nnc(Nc4c5c(cc6c4CCC6)CCC5)[nH]3)nn2C2CC2)COC1 [Example 16, 5-((1-cyclopropyl-5-(3-methoxyoxetan-3-yl)-1H-pyrazol-3-yl)sulfonyl)-N-(1,2,3,5,6,7-hexahydro-s-indacen-4-yl)-4H-1,2,4-triazol-3-amine]
≤ 5 µM	COc1cc(-c2c(C)cc3c(c2Nc2nnc(S(C)(=O)=O)[nH]2)CCC3)ccn1 [Example 312, N-(5-(2-methoxypyridin-4-yl)-6-methyl-2,3-dihydro-1H-inden-4-yl)-5-(methylsulfonyl)-4H-1,2,4-triazol-3-amine]
≤ 10 µM	O=S(=O)(c1cncnc1)c1n[nH]c(Nc2c3c(cc4c2CCC4)CCC3)n1 [Example 169, N-(1,2,3,5,6,7-hexahydro-s-indacen-4-yl)-3-(pyrimidin-5-ylsulfonyl)-1H-1,2,4-triazol-5-amine]
≤ 5 µM	O=S(=O)(c1nnc(Nc2c3c(cc4c2CCC4)CCC3)[nH]1)C1CCCC1 [Example 64, 3-(Cyclopentylsulfonyl)-N-(1,2,3,5,6,7-hexahydro-s-indacen-4-yl)-1H-1,2,4-triazol-5-amine]
≤ 10 µM	CC(C)(O)CNS(=O)(=O)c1nnc(Nc2c3c(cc4c2CCC4)CCC3)[nH]1 [Example 272, 5-((1,2,3,5,6,7-hexahydro-s-indacen-4-yl)amino)-N-(2-hydroxy-2-methylpropyl)-4H-1,2,4-triazole-3-sulfonamide]
≤ 10 µM	O=S(=O)(c1nnc(Nc2c3c(cc4c2CCC4)CCC3)[nH]1)N1CCC2(CCCN2CC(F)(F)F)CC1 [Example 267, N-(1,2,3,5,6,7-hexahydro-s-indacen-4-yl)-5-((1-(2,2,2-trifluoroethyl)-1,8-diazaspiro[4.5]decan-8-yl)sulfonyl)-4H-1,2,4-triazol-3-amine]
≤ 0.5 µM	CCN1CCCC12CCN(S(=O)(=O)c1nnc(Nc3c4c(cc5c3CCC5)CCC4)[nH]1)CC2 [Example 256, 5-((1-ethyl-1,8-diazaspiro[4.5]decan-8-yl)sulfonyl)-N-(1,2,3,5,6,7-hexahydro-s-indacen-4-yl)-4H-1,2,4-triazol-3-amine]

IC50	Structure (SMILES)
≤ 10 µM	CN(C)C1CCN(S(=O)(=O)c2nnc(Nc3c(C4CCOCC4)ccc4c3CCC4)[nH]2)CC1 [Example 209, N,N-dimethyl-1-((5-((5-(tetrahydro-2H-pyran-4-yl)-2,3-dihydro-1H-inden-4-yl)amino)-4H-1,2,4-triazol-3-yl)sulfonyl)piperidin-4-amine]
≤ 5 µM	O=S(=O)(NCCc1ccccc1)c1nnc(Nc2c3c(cc4c2CCC4)CCC3)[nH]1 [Example 134, 5-((1,2,3,5,6,7-hexahydro-s-indacen-4-yl)amino)-N-phenethyl-4H-1,2,4-triazole-3-sulfonamide]
≤ 10 µM	COC1(c2cc([S+]([O-])c3nnc(Nc4c5c(cc6c4CCC6)CCC5)[nH]3)nn2C(C)C)COC1 (centres unmarked) [Example 25, N-(1,2,3,5,6,7-hexahydro-s-indacen-4-yl)-5-((1-isopropyl-5-(3-methoxyoxetan-3-yl)-1H-pyrazol-3-yl)sulfinyl)-4H-1,2,4-triazol-3-amine]
≤ 5 µM	CN1CCC2CN(S(=O)(=O)c3nnc(Nc4c5c(cc6c4CCC6)CCC5)[nH]3)CC21 (centres unmarked) [Example 101, N-(1,2,3,5,6,7-hexahydro-s-indacen-4-yl)-5-((1-methylhexahydropyrrolo[3,4-b]pyrrol-5 (1H)-yl)sulfonyl)-4H-1,2,4-triazol-3-amine]
≤ 10 µM	COC1(c2cc([S+]([O-])c3nnc(Nc4c5c(cc6c4CCC6)CCC5)[nH]3)nn2C)COC1 (centres unmarked) [Example 26, N-(1,2,3,5,6,7-hexahydro-s-indacen-4-yl)-5-((5-(3-methoxyoxetan-3-yl)-1-methyl-1H-pyrazol-3-yl)sulfinyl)-4H-1,2,4-triazol-3-amine]
≤ 5 µM	Cc1cc2c(c(Nc3nnc(S(C)(=O)=O)[nH]3)c1-c1ccnc(OC3CCNCC3)c1)CCC2 [Example 368, N-(6-methyl-5-(2-(piperidin-4-yloxy)pyridin-4-yl)-2,3-dihydro-1H-inden-4-yl)-5-(methylsulfonyl)-4H-1,2,4-triazol-3-amine]
≤ 10 µM	COc1cc(-c2cc(-c3ncco3)c3c(c2Nc2nnc(S(=O)(=O)N4CCC(N(C)C)CC4)[nH]2)CCC3)ccn1 [Example 229, 1-((5-((5-(2-methoxypyridin-4-yl)-7-(oxazol-2-yl)-2,3-dihydro-1H-inden-4-yl)amino)-4H-1,2,4-triazol-3-yl)sulfonyl)-N,N-dimethylpiperidin-4-amine]
≤ 5 µM	N#Cc1ccc(S(=O)(=O)c2nnc(Nc3c4c(cc5c3CCC5)CCC4)[nH]2)cc1 [Example 184, 4-((5-((1,2,3,5,6,7-hexahydro-s-indacen-4-yl)amino)-4H-1,2,4-triazol-3-yl)sulfonyl)benzonitrile]
≤ 1 µM	CC(=O)c1c2c(c(Nc3nnc(S(=O)(=O)N4CCC(N(C)C)CC4)[nH]3)c3c1CCC3)CCC2 [Example 232, 1-(8-((5-((4-(dimethylamino)piperidin-1-yl)sulfonyl)-4H-1,2,4-triazol-3-yl)amino)-1,2,3,5,6,7-hexahydro-s-indacen-4-yl)ethan-1-one]
≤ 10 µM	CN1C[C@H]2[C@@H]1CCN2S(=O)(=O)c1nnc(Nc2c3c(cc4c2CCC4)CCC3)[nH]1 [Example 269, N-(1,2,3,5,6,7-hexahydro-s-indacen-4-yl)-5-(((1S,5S)-6-methyl-2,6-diazabicyclo[3.2.0]heptan-2-yl)sulfonyl)-4H-1,2,4-triazol-3-amine]
≤ 5 µM	CCNCCCS(=O)(=O)c1nnc(Nc2c3c(cc4c2CCC4)CCC3)[nH]1 [Example 55, 5-((3-(ethylamino)propyl)sulfonyl)-N-(1,2,3,5,6,7-hexahydro-s-indacen-4-yl)-4H-1,2,4-triazol-3-amine]
≤ 5 µM	CN(C)C1CCC(Oc2cc(-c3ccc4c(c3Nc3nnc(S(C)(=O)=O)[nH]3)CCC4)ccn2)CC1 (centres unmarked) [Example 356, N-(5-(2-((4-(dimethylamino)cyclohexyl)oxy)pyridin-4-yl)-2,3-dihydro-1H-inden-4-yl)-5-(methylsulfonyl)-4H-1,2,4-triazol-3-amine]
≤ 5 µM	CN1Cc2ccc(S(=O)(=O)c3n[nH]c(Nc4c5c(cc6c4CCC6)CCC5)n3)cc2C1=O [Example 180, 6-((5-((1,2,3,5,6,7-hexahydro-s-indacen-4-yl)amino)-1H-1,2,4-triazol-3-yl)sulfonyl)-2-methylisoindolin-1-one]
≤ 10 µM	O=S(=O)(Cc1ccccn1)c1nnc(Nc2c3c(cc4c2CCC4)CCC3)[nH]1 [Example 71, N-(1,2,3,5,6,7-hexahydro-s-indacen-4-yl)-3-((pyridin-2-ylmethyl)sulfonyl)-1H-1,2,4-triazol-5-amine]
≤ 10 µM	O=S(=O)(c1ccccc1)c1nnc(Nc2c(-c3ccncc3)ccc3c2CCC3)[nH]1 [Example 189, 5-(phenylsulfonyl)-N-(5-(pyridin-4-yl)-2,3-dihydro-1H-inden-4-yl)-4H-1,2,4-triazol-3-amine]

Structure (SMILES)	IC50
O=S(=O)(c1nnc(Nc2c3c(cc4c2CCC4)CCC3)[nH]1)N1CCC2(CCCN2CCF)CC1 [Example 255, 5-((1-(2-fluoroethyl)-1,8-diazaspiro[4.5]decan-8-yl)sulfonyl)-N-(1,2,3,5,6,7-hexahydro-s-indacen-4-yl)-4H-1,2,4-triazol-3-amine]	≤ 1 µM
